Reference: patent US20190287644A1, “Correlation Method To Identify Relevant Genes For Personalized Treatment Of Complex Disease” (Northeastern University, priority 2018, published 2019)

Legend:
Nppa and Nppb = test: Expression of hypertrophic markers Nppa and Nppb in neonatal rat ventricular myocytes (qPCR); assay type: cell-based; conditions: NRVMs transfected with control siRNA
Protocol: (§1) Right ventricular myocytes were isolated and cultured, as reported using 2-4 day old rats. Myocytes and fibroblasts were separated with Percoll density gradient. For knockdown experiments cells were transfected with Hes1 siRNA using lipofectamine RNAimax (life technologies).
RNA isolation from cells was performed using Qiazol lysis reagent. cDNA synthesis was performed using the High Capacity Reverse Transcription cDNA Kit (Life Technologies). qPCR was performed using the LightCycler 480 (Roche).

[1] = system: neonatal rat ventricular myocytes (NRVMs); test: Cardiomyocyte cell cross-sectional area; assay type: cell-based; conditions: cells transfected with control siRNA, following ISO/PE treatment
Excerpt: as §1
Quantification of cardiomyocyte cell cross-sectional area was done following transfection with either control or Hes1 siRNA and a 48-hour treatment with control or isoproterenol or phenylepherine containing media. Images were taken on a Nikon Eclipse TE2000-U microscope. Images were analyzed using the Nikon Imagine System (NIS). 150 cells were used to compute the SEM.

[2] = system: Hybrid Mouse Diversity Panel (HMDP) strains; test: ISO-induced cardiac hypertrophy (total heart weight) in the Hybrid Mouse Diversity Panel; assay type: in vivo; conditions: across HMDP strains, three weeks after implantation of ISO pump (30 mg per kg per day, 21 days)
Protocol: 30 mg per kg body weight per day of Isoproterenol (ISO) was administered for 21 days in 8-10 week old female mice using ALZET osmotic mini-pumps, which were surgically implanted intraperitoneally. All animal experiments were conducted following guidelines established and approved by the University of California, Los Angeles Institutional Animal Care and Use Committee (IACUC) and housed in an IACUC-approved vivarium with daily monitoring by vivarium personnel.
As each mouse in a strain is genetically identical, several mice from the same strain were used for measuring the cardiac hypertrophic response to ISO treatment. […] Cardiac hypertrophy for a given strain was calculated as the increase in average total heart weight after ISO treatment compared to control mice.
One can also perform an entirely novel type of differential gene expression analysis owing to the fact that, in addition to control and treated subjects belonging to the same strain having the same genetic background, the change of heart mass in response to ISO, i.e., the ratio m′i/mi of total heart mass before (mi) and after ISO treatment (m′i) for strain i, can be measured for all strains (i=1, 2, . . . , N) to assess the degree of hypertrophy among different strains. […]

| Compound | increase of Nppa expression (Nppa and Nppb) [fold] | increase of Nppb expression (Nppa and Nppb) [fold] | cellular cross-sectional area [1] | increase of heart mass [2] [%] |
| --- | --- | --- | --- | --- |
| CC(C)NCC(O)c1ccc(O)c(O)c1 (stereo not shown) [ISO, isoproterenol] | 3.5 | 7.9 | doubled | ≤ 80 |
| CNC[C@H](O)c1cccc(O)c1 [PE, phenylephrine] | 11 | 13 | doubled |  |
